This passage reports EC50 and Ki results from patent US10035800B2 (AbbVie Inc., priority 2013, dated 2018).

SMILES strings stand for the structures.

In test [1] the test system is breast cancer cell line MX-1. Description: MX-1 cell line proliferation assay. The class given is cell-based. To be noted: MX-1 cells, 3-day proliferation assay, Cell Titer Glo; read-out: Cellular proliferation: EC50. The method, boiled down: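 EC50 comes from sigmoidal fits of Cell Titer Glo luminescence relative to DMSO controls, with assay MSR 2.1. Ten-point 3-fold dilutions (top 3 or 1 μM final) were added to MX-1 breast cancer cells after overnight adhesion. Cells were at 5000/well and proliferation ran 3 days.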

For test [2], the target named is T1, BRD4 (BDI_K57-E168) (Homo sapiens, UniProt O60885).
T1 construct: BD1: amino acids K57-E168; made in house
Description: TR-FRET bromodomain binding assay, first bromodomain of BRD4. To be noted: TR-FRET assay protocol G (compound 0.92 μM-15 pM); 100 nM probe. The procedure, abridged:
(§1)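 Displacement of a fluorescent Alexa647 BET-inhibitor probe (100 nM with BDI, 30 nM with BDII) from His-tagged BRD4 bromodomains was monitored by europium TR-FRET after one hour at room temperature. Data were normalized to no-compound and 1 μM unlabelled probe controls, fitted with a four-parameter logistic, and IC50s converted to Ki.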
In general terms: In TR-FRET formats the signal depends on donor and acceptor labels being close together.

The target of test [3] is T2, BRD4 (BDII_E352-M457) (Homo sapiens, UniProt O60885).
T2 construct: protocol; made in house
Description: TR-FRET bromodomain binding assay, second bromodomain of BRD4. The note with it: TR-FRET assay protocol G (compound 0.92 μM-15 pM); 30 nM probe. The method, boiled down:
as §1

As a reminder, the Ki is a dissociation constant, usually derived from enzyme kinetics or from competition with a known ligand. Read a low Ki as a stronger hold on the target.

On to `Cn1cc2c3c(c[nH]c3c1=O)C(CCCOc1ccccc1)N(c1ccc(F)cc1F)c1ccc(CS(C)(=O)=O)cc1-2` [Example 145, (R)-4-(2,4-difluorophenyl)-10-methyl-7-((methylsulfonyl)methyl)-3-(3-phenoxypropyl)-3,4-dihydro-1H-1,4,10-triazadibenzo[cd,f]azulen-11(10H)-one], for which the EC50 in test [1] is 80.6 nM. The values for the Ki in test [2] and in test [3] were 55.1 nM and 1.38 nM, respectively.

Consider `CN1CCN(Cc2[nH]c3c(=O)n(C)cc4c3c2CN(c2ccc(Cl)cc2)c2ccccc2-4)CC1` [Example 146, 4-(4-chlorophenyl)-10-methyl-2-((4-methylpiperazin-1-yl)methyl)-3,4-dihydro-1H-1,4,10-triazadibenzo[cd,f]azulen-11(10H)-one], for which the EC50 in test [1] was determined as 124 nM. In addition, the Ki was 1.42 nM in test [2] and 17 nM in test [3].

Consider `COCCCC1c2c[nH]c3c(=O)n(C)cc(c23)-c2cc(CS(C)(=O)=O)ccc2N1c1ccc(F)cc1F` (stereo not drawn) [Example 147, 4-(2,4-difluorophenyl)-3-(3-methoxypropyl)-10-methyl-7-((methylsulfonyl)methyl)-3,4-dihydro-1H-1,4,10-triazadibenzo[cd,f]azulen-11(10H)-one], for which the EC50 in test [1] was found to be 20.3 nM. Besides, the Ki in test [2] was determined as 7.02 nM; in test [3] it was 0.97 nM.

For the compound `CCOCCCC1c2c[nH]c3c(=O)n(C)cc(c23)-c2cc(CS(C)(=O)=O)ccc2N1c1ccc(F)cc1F` (stereo not drawn) [Example 148, 4-(2,4-difluorophenyl)-3-(3-ethoxypropyl)-10-methyl-7-((methylsulfonyl)methyl)-3,4-dihydro-1H-1,4,10-triazadibenzo[cd,f]azulen-11(10H)-one], in test [1], the EC50 was 31.9 nM. Moreover, the Ki in test [2] was determined as 6.77 nM; in test [3] it was 0.54 nM.

`COC(=O)CNC(=O)C1c2c[nH]c3c(=O)n(C)cc(c23)-c2cc(CS(C)(=O)=O)ccc2N1c1ccc(F)cc1F` (stereo not drawn) [Example 155, methyl 2-(4-(2,4-difluorophenyl)-10-methyl-7-((methylsulfonyl)methyl)-11-oxo-3,4,10,11-tetrahydro-1H-1,4,10-triazadibenzo[cd,f]azulene-3-carboxamido)acetate]: the EC50 in test [1] was found to be 349 nM. Further, the Ki in test [2] came out at 42.7 nM; in test [3], 47.8 nM.

As for `Cn1cc2c3c(c[nH]c3c1=O)C(C(=O)NCCc1ccccc1)N(c1ccc(F)cc1F)c1ccc(CS(C)(=O)=O)cc1-2` (stereo not drawn) [Example 156, 4-(2,4-difluorophenyl)-10-methyl-7-((methylsulfonyl)methyl)-11-oxo-N-phenethyl-3,4,10,11-tetrahydro-1H-1,4,10-triazadibenzo[cd,f]azulene-3-carboxamide], the EC50 in test [1] stood at 214 nM. For the same compound, the Ki in test [2] is 46.8 nM; in test [3] it was 42.1 nM.

Regarding `CCCCNC(=O)C1c2c[nH]c3c(=O)n(C)cc(c23)-c2cc(CS(C)(=O)=O)ccc2N1c1ccc(F)cc1F` (stereo not drawn) [Example 157, N-butyl-4-(2,4-difluorophenyl)-10-methyl-7-((methylsulfonyl)methyl)-11-oxo-3,4,10,11-tetrahydro-1H-1,4,10-triazadibenzo[cd,f]azulene-3-carboxamide], the EC50 in test [1] amounted to 77.4 nM. For the same compound, the Ki was 39.6 nM in test [2] and 23.9 nM in test [3].

Regarding `CC(C)CNC(=O)C1c2c[nH]c3c(=O)n(C)cc(c23)-c2cc(CS(C)(=O)=O)ccc2N1c1ccc(F)cc1F` (stereo not drawn) [Example 161, 4-(2,4-difluorophenyl)-N-isobutyl-10-methyl-7-((methylsulfonyl)methyl)-11-oxo-3,4,10,11-tetrahydro-1H-1,4,10-triazadibenzo[cd,f]azulene-3-carboxamide], the EC50 in test [1] worked out at 41.6 nM. The values for the Ki in test [2] and in test [3] were 32.1 nM and 21.4 nM, respectively.

With `Cn1cc2c3c(c[nH]c3c1=O)C(C(=O)NCC1CC1)N(c1ccc(F)cc1F)c1ccc(CS(C)(=O)=O)cc1-2` (stereo not drawn) [Example 164, N-(cyclopropylmethyl)-4-(2,4-difluorophenyl)-10-methyl-7-((methylsulfonyl)methyl)-11-oxo-3,4,10,11-tetrahydro-1H-1,4,10-triazadibenzo[cd,f]azulene-3-carboxamide], in test [1], the EC50 turned out to be 72.5 nM. Further, the results for the inhibition constant Ki in test [2] and in test [3] were 41.7 nM and 30 nM, respectively.

Take `Cn1cc2c3c(c[nH]c3c1=O)CN(C(=O)CC(C)(C)C)c1c(F)cc(F)cc1-2` [Example 169, 4-(3,3-dimethylbutanoyl)-5,7-difluoro-10-methyl-3,4-dihydro-1H-1,4,10-triazadibenzo[cd,f]azulen-11(10H)-one]: the EC50 in test [1] worked out at 69.9 nM. Also, the Ki in test [2] was 12.4 nM; in test [3], 4.67 nM.

Consider `Cn1cc2c3c(c[nH]c3c1=O)CN(C1CCC(NC(=O)OC(C)(C)C)CC1)c1ccc(S(C)(=O)=O)cc1-2` (stereo not drawn) [Example 170, tert-butyl ((trans)-4-(10-methyl-7-(methylsulfonyl)-11-oxo-10,11-dihydro-1H-1,4,10-triazadibenzo[cd,f]azulen-4(3H)-yl)cyclohexyl)carbamate], for which the EC50 in test [1] turned out to be 57.6 nM. Besides, the values for the Ki in test [2] and in test [3] were 7.07 nM and 25.2 nM, respectively.

Regarding `Cn1cc2c3c(c[nH]c3c1=O)CN(S(=O)(=O)C1CC1)c1ccc(CS(C)(=O)=O)cc1-2` [Example 172, 4-(cyclopropylsulfonyl)-10-methyl-7-((methylsulfonyl)methyl)-3,4-dihydro-1H-1,4,10-triazadibenzo[cd,f]azulen-11(10H)-one], the EC50 in test [1] came out at 551 nM. For the same compound, the Ki in test [2] was found to be 57.8 nM; in test [3] it was 12.8 nM.

Turning to `CNCCCC1c2c[nH]c3c(=O)n(C)cc(c23)-c2cc(CS(C)(=O)=O)ccc2N1c1ccc(F)cc1F` (stereo not drawn) [Example 174, 4-(2,4-difluorophenyl)-10-methyl-3-(3-(methylamino)propyl)-7-((methylsulfonyl)methyl)-3,4-dihydro-1H-1,4,10-triazadibenzo[cd,f]azulen-11(10H)-one], the EC50 in test [1] amounted to 239 nM. The Ki in test [2] came to 12.6 nM; in test [3], 1.53 nM.

For the compound `CN1CCN(Cc2[nH]c3c(=O)n(C)cc4c3c2CN(c2ccc(Cl)cc2)c2ccc(CS(C)(=O)=O)cc2-4)CC1` [Example 176, 4-(4-chlorophenyl)-10-methyl-2-((4-methylpiperazin-1-yl)methyl)-7-((methylsulfonyl)methyl)-3,4-dihydro-1H-1,4,10-triazadibenzo[cd,f]azulen-11(10H)-one], in test [1], the EC50 is 14.2 nM. Besides, the inhibition constant Ki in test [2] amounted to 1.01 nM; in test [3] it was 3.55 nM.

On to `Cn1cc2c3c(c[nH]c3c1=O)CN(c1ccc(F)cc1)c1ccc(CC#N)cc1-2` [Example 177, 2-(4-(4-fluorophenyl)-10-methyl-11-oxo-3,4,10,11-tetrahydro-1H-1,4,10-triazadibenzo[cd,f]azulen-7-yl)acetonitrile], for which, in test [1], the EC50 turned out to be 3.72 nM. The Ki was determined as 2.02 nM in test [2] and 1.27 nM in test [3].

On to `Cn1cc2c3c(c[nH]c3c1=O)CN(CC(C)(C)CN1CCCC1)c1ccc(CS(C)(=O)=O)cc1-2` [Example 178], for which the EC50 in test [1] was found to be 123 nM. For the same compound, the Ki in test [2] is 4.36 nM; in test [3] it was 4.38 nM.

Consider `COCC(C)N1Cc2c[nH]c3c(=O)n(C)cc(c23)-c2cc(CS(C)(=O)=O)ccc21` (stereo not drawn) [Example 185, 4-(1-methoxypropan-2-yl)-10-methyl-7-((methylsulfonyl)methyl)-3,4-dihydro-1H-1,4,10-triazadibenzo[cd,f]azulen-11(10H)-one], for which the EC50 in test [1] came out at 28.3 nM. The results for the Ki in test [2] and in test [3] were 4.19 nM and 10.2 nM, respectively.

Take `Cn1cc2c3c(c(CN4CCOCC4)[nH]c3c1=O)CN(c1ccc(Cl)cc1)c1ccc(CS(C)(=O)=O)cc1-2` [Example 193, 4-(4-chlorophenyl)-10-methyl-7-((methylsulfonyl)methyl)-2-(morpholinomethyl)-3,4-dihydro-1H-1,4,10-triazadibenzo[cd,f]azulen-11(10H)-one]: in test [1], the EC50 was found to be 31.7 nM. Moreover, the Ki amounted to 1.85 nM in test [2] and 12.4 nM in test [3].

As for `Cn1cc2c3c(c[nH]c3c1=O)CN(C1CCC(NC(=O)OC(C)(C)C)CC1)c1ccc(CS(C)(=O)=O)cc1-2` (stereo not drawn) [Example 197, tert-butyl ((trans)-4-(10-methyl-7-((methylsulfonyl)methyl)-11-oxo-10,11-dihydro-1H-1,4,10-triazadibenzo[cd,f]azulen-4(3H)-yl)cyclohexyl)carbamate], the EC50 in test [1] is 2.66 nM. Further, the results for the Ki in test [2] and in test [3] were 1.52 nM and 2.65 nM, respectively.

Turning to `Cn1cc2c3c(c[nH]c3c1=O)C(CO)N(c1ccc(F)cc1F)c1ccc(CS(C)(=O)=O)cc1-2` (stereo not drawn) [Example 200, 4-(2,4-difluorophenyl)-3-(hydroxymethyl)-10-methyl-7-((methylsulfonyl)methyl)-3,4-dihydro-1H-1,4,10-triazadibenzo[cd,f]azulen-11(10H)-one], the EC50 in test [1] was 34.2 nM. The inhibition constant (Ki) was 8.18 nM in test [2] and 2.05 nM in test [3].

For the compound `Cn1cc2c3c(c(C#N)[nH]c3c1=O)CN(c1ccc(Cl)cc1)c1ccccc1-2` [Example 201, 4-(4-chlorophenyl)-10-methyl-11-oxo-3,4,10,11-tetrahydro-1H-1,4,10-triazadibenzo[cd,f]azulene-2-carbonitrile], in test [1], the EC50 is 27.8 nM. The Ki in test [2] was found to be 0.85 nM; in test [3], 3.2 nM.
